A value given as a limit tells only on which side of the number the result lay.

The first assay has as its target T1, BRD4 bromodomain 1 (BD1) (Homo sapiens, UniProt O60885).
T1 construct: Selectivity against BRD4 bromodomain 1 (BD1), measured by HTRF; His; purchased Cayman 11720
The experiment in a line: BRD4 (BD1)-H4 tetra-acetylated HTRF histone-binding assay. Conditions: Table 1. Here is the method: (§1) Protein Production. Double stranded DNA fragments encoding the protein sequence of ENL YEATS(1-148) were synthesized (IDT DNA) for assembly-based cloning into a modified expression vector backbone derived from pET21a (Novagen). The protein was fused to a StrepII-SUMO and 6×His tag on the amino and carboxy terminus, respectively. Transformed BL21(DE3) cells (New England Biolabs) were grown at 37° C. in 2×YT growth medium to an OD600 of 0.6. Protein expression was induced at 25° C. with the addition of isopropyl-β-D-thiogalactopyranoside (IPTG) to a final concentration of 0.4 mM. The culture was harvested by centrifugation following a 20-hour incubation and subsequently purified by immobilized metal affinity chromatography. Cells were resuspended 50 mM Tris-HCl pH 8.0, 300 mM NaCl, 10% glycerol, 10 mM imidazole, 1 mM DTT containing Complete EDTA-free protease inhibitor (Roche) and lysed by two passes through a MicroFluidizer at 10,000 psi. The lysate was clarified by centrifugation at 16,000 rpm for 30 minutes at 4° C. The supernatant was passed over NiNTA agarose (QIAGEN) and the protein was eluted in 50 mM Tris-HCl pH 8.0, 300 mM NaCl, 10% glycerol, 250 mM imidazole, 1 mM DTT. Fractions containing the ENL YEATS(1-148) fusion protein were buffer exchanged into 100 mM Tris-HCl pH 8.0, 150 mM NaCl, 1 mM EDTA, 1 mM DTT using PD10 desalting columns (GE Life Sciences). Ulp1 protease was added to cleave the StrepII-SUMO fusion and the reaction mixture was incubated overnight at 4° C. The cleavage reaction mixture was loaded onto a StrepTrap column (GE Life Sciences) and ENL YEATS(1-148) was recovered in the flow through. BRD4 BD1 was purchased from Cayman (Cat. No. 11720).
(§2) Homogenous time-resolved FRET (HTRF) histone-binding assays. Both HTRF assays were performed by combining recombinant protein and synthetic histone peptide in assay buffer (25 mM HEPES pH 7, 20 mM NaCl, 0.2% Pluronic F-127, and 0.05% BSA) with 1 nM LanthaScreen Eu-anti-His Tag antibody (ThermoFisher, Cat. No, PV5597) and 8.9 nM SureLight allophycocyanin-streptavidin (Perkin Elmer, APC-SA, Cat. No. CR130-100). ENL YEATS was used at 5 nM and BRD4 BD1 was used at 10 nM. ENL assays were performed with H3(13-32)K27cr (13.3 and 100 nM, respectively), custom synthesized at ABclonal (N-terminal biotin, C-terminal amide); BRD4 BD1 assay was performed with 13.3 nM tetra-acetylated H4 (BioVision, Cat. No. 7144-01). Once all reagents were combined (with or without peptide), 10 μL was dispensed per well into black 384-well low-volume plates (Corning, Cat. No. 3821) and drug was added by pin tool transfer (Biomek FX). Assays were incubated for 2 or more hours before measurement of HTRF signal on a PHERAstar plate reader (BMG Labtech; simultaneous dual emission; excitation=337 nm, emission 1=665 nm, emission 2=620 nm). HTRF signal (ratio of emission 1 to emission 2) from vehicle-treated wells (maximum signal) and no-peptide-control wells (minimum signal) were used to calculate percent inhibition for drug-treated wells.
Turning to `CC(C)NC(=O)c1ccc2nc(-c3ccc(C#N)cc3)cn2c1` [Compound 4], the IC50 was above 50 µM.

Compound `CC(C)NC(=O)c1ccc2nc(-c3ccncc3)cn2c1` [Compound 5] displayed an IC50 above 50 µM.

The compound `O=C(NCc1cccnc1)c1ccc2nc(-c3ccccc3)cn2c1` [Compound 9] had an IC50 above 50 µM.

As for `Cc1ccc(-c2cn3cc(C(=O)NC(C)C)ccc3n2)cc1` [Compound 14], the IC50 is above 50 µM.

Compound `O=C(NC1CCC1)c1ccc2nc(-c3ccccc3)cn2c1` [Compound 15] registered an IC50 above 50 µM.

In turn, `O=C(NC1CCCC(O)C1)c1ccc2nc(-c3ccccc3)cn2c1` (centres unmarked) [Compound 16] displayed an IC50 above 50 µM.

On to `Cc1cccc(-c2cn3cc(C(=O)NC(C)C)ccc3n2)c1` [Compound 17], for which the half-maximal inhibitory concentration (IC50) was above 50 µM.

Consider `CC(C)NC(=O)c1ccc2nc(-c3cccc(C#N)c3)cn2c1` [Compound 18], for which the IC50 was above 50 µM.

As for `COc1cccc(-c2cn3cc(C(=O)NC(C)C)ccc3n2)c1` [Compound 20], the IC50 was above 50 µM.

The compound `COc1ccc(-c2cn3cc(C(=O)NC(C)C)ccc3n2)cc1` [Compound 22] had an IC50 above 50 µM.

`O=C(NC1CCCC1)c1ccc2nc(-c3ccccc3)cn2c1` [Compound 23] had an IC50 above 50 µM.

`CC(NC(=O)c1ccc2nc(-c3ccccc3)cn2c1)c1ccncc1` (centres unmarked) [Compound 24] gave an IC50 above 50 µM.

Turning to `Cc1ccccc1-c1cn2cc(C(=O)NC(C)C)ccc2n1` [Compound 26], the 50% inhibitory concentration (IC50) is above 50 µM.

The assay is the same for the next values; noted with them: Table 2.
`CC(C)NC(=O)c1ccc2nc(-c3ccc(C#N)cc3)cn2c1` [Compound 4] gave an IC50 above 50 µM.

For `CC(C)NC(=O)c1ccc2nc(-c3ccncc3)cn2c1` [Compound 5], the IC50 was above 50 µM.

`O=C(NCc1cccnc1)c1ccc2nc(-c3ccccc3)cn2c1` [Compound 9] registered an IC50 above 50 µM.

`Cc1ccc(-c2cn3cc(C(=O)NC(C)C)ccc3n2)cc1` [Compound 14] yielded a concentration for half-maximal inhibition (IC50) above 50 µM.

Consider `O=C(NC1CCC1)c1ccc2nc(-c3ccccc3)cn2c1` [Compound 15], for which the 50% inhibitory concentration (IC50) is above 50 µM.

On to `O=C(NC1CCCC(O)C1)c1ccc2nc(-c3ccccc3)cn2c1` (centres unmarked) [Compound 16], for which the IC50 was above 50 µM.

As to `Cc1cccc(-c2cn3cc(C(=O)NC(C)C)ccc3n2)c1` [Compound 17], the IC50 is above 50 µM.

Take `CC(C)NC(=O)c1ccc2nc(-c3cccc(C#N)c3)cn2c1` [Compound 18]: the IC50 is above 50 µM.

As to `COc1cccc(-c2cn3cc(C(=O)NC(C)C)ccc3n2)c1` [Compound 20], the IC50 was above 50 µM.

For `COc1ccc(-c2cn3cc(C(=O)NC(C)C)ccc3n2)cc1` [Compound 22], the 50% inhibitory concentration (IC50) is above 50 µM.

Turning to `O=C(NC1CCCC1)c1ccc2nc(-c3ccccc3)cn2c1` [Compound 23], the half-inhibitory concentration (IC50) is above 50 µM.

In turn, `CC(NC(=O)c1ccc2nc(-c3ccccc3)cn2c1)c1ccncc1` (centres unmarked) [Compound 24] yielded an IC50 above 50 µM.

On to `Cc1ccccc1-c1cn2cc(C(=O)NC(C)C)ccc2n1` [Compound 26], for which the IC50 is above 50 µM.

A further assay has as its target T2, ENL YEATS domain (association with H3K27cr) (Homo sapiens, UniProt Q03111).
T2 sequence (Q03111 1-148): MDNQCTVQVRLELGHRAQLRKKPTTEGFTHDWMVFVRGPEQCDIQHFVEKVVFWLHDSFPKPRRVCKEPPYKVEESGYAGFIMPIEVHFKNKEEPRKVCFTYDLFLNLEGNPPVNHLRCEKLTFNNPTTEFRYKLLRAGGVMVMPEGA
The experiment in a line: biochemical. Conditions: ENL (YEATS)-H3K27cr HTRF (IC50, μM), Table 1. As for the experimental part: as §1, §2
In the case of `CC(C)NC(=O)c1ccc2nc(-c3ccc(C#N)cc3)cn2c1` [Compound 4], inhibition was half-maximal at 2.9 µM (IC50).

Compound `CC(C)NC(=O)c1ccc2nc(-c3ccncc3)cn2c1` [Compound 5] yielded a half-inhibitory concentration (IC50) of 4.1 µM.

`O=C(NCc1cccnc1)c1ccc2nc(-c3ccccc3)cn2c1` [Compound 9]: the IC50 came out at 6.8 µM.

On to `Cc1ccc(-c2cn3cc(C(=O)NC(C)C)ccc3n2)cc1` [Compound 14], for which the midpoint of inhibition, the IC50, lay at 2.6 µM.

`O=C(NC1CCC1)c1ccc2nc(-c3ccccc3)cn2c1` [Compound 15]: inhibition was half-maximal at 0.506 µM (IC50).

`O=C(NC1CCCC(O)C1)c1ccc2nc(-c3ccccc3)cn2c1` (centres unmarked) [Compound 16] returned an IC50 of 20 µM.

Turning to `Cc1cccc(-c2cn3cc(C(=O)NC(C)C)ccc3n2)c1` [Compound 17], the IC50 was determined as 4.8 µM.

`CC(C)NC(=O)c1ccc2nc(-c3cccc(C#N)c3)cn2c1` [Compound 18] showed a 50% inhibitory concentration (IC50) of 4.5 µM.

On to `COc1cccc(-c2cn3cc(C(=O)NC(C)C)ccc3n2)c1` [Compound 20], for which the midpoint of inhibition, the IC50, lay at 24 µM.

In the case of `COc1ccc(-c2cn3cc(C(=O)NC(C)C)ccc3n2)cc1` [Compound 22], half-maximal inhibition (IC50) required 1.3 µM.

In turn, `O=C(NC1CCCC1)c1ccc2nc(-c3ccccc3)cn2c1` [Compound 23] registered an IC50 of 1.8 µM.

`CC(NC(=O)c1ccc2nc(-c3ccccc3)cn2c1)c1ccncc1` (centres unmarked) [Compound 24] came in with a 50% inhibitory concentration (IC50) of 12 µM.

Turning to `Cc1ccccc1-c1cn2cc(C(=O)NC(C)C)ccc2n1` [Compound 26], half-maximal inhibition (IC50) was put at 33 µM.

Staying with this assay, now noted: ENL (YEATS)-H3K27cr HTRF (IC50, μM), Table 2.
Compound `CC(C)NC(=O)c1ccc2nc(-c3ccc(C#N)cc3)cn2c1` [Compound 4] returned an IC50 of 2.9 µM.

The compound `CC(C)NC(=O)c1ccc2nc(-c3ccncc3)cn2c1` [Compound 5] gave a concentration for half-maximal inhibition (IC50) of 4.1 µM.

As to `O=C(NCc1cccnc1)c1ccc2nc(-c3ccccc3)cn2c1` [Compound 9], the 50% inhibitory concentration (IC50) is 6.8 µM.

For `Cc1ccc(-c2cn3cc(C(=O)NC(C)C)ccc3n2)cc1` [Compound 14], the IC50 came to 2.6 µM.

In turn, `O=C(NC1CCC1)c1ccc2nc(-c3ccccc3)cn2c1` [Compound 15] yielded a concentration for half-maximal inhibition (IC50) of 0.506 µM.

Regarding `O=C(NC1CCCC(O)C1)c1ccc2nc(-c3ccccc3)cn2c1` (centres unmarked) [Compound 16], half-maximal inhibition (IC50) required 20 µM.

For the compound `Cc1cccc(-c2cn3cc(C(=O)NC(C)C)ccc3n2)c1` [Compound 17], the IC50 was 4.8 µM.

`CC(C)NC(=O)c1ccc2nc(-c3cccc(C#N)c3)cn2c1` [Compound 18] gave an IC50 of 4.5 µM.

For `COc1cccc(-c2cn3cc(C(=O)NC(C)C)ccc3n2)c1` [Compound 20], half-maximal inhibition (IC50) required 24 µM.

In the case of `COc1ccc(-c2cn3cc(C(=O)NC(C)C)ccc3n2)cc1` [Compound 22], the IC50 was 1.3 µM.

The compound `O=C(NC1CCCC1)c1ccc2nc(-c3ccccc3)cn2c1` [Compound 23] returned a half-inhibitory concentration (IC50) of 1.8 µM.

In turn, `CC(NC(=O)c1ccc2nc(-c3ccccc3)cn2c1)c1ccncc1` (centres unmarked) [Compound 24] had a concentration for half-maximal inhibition (IC50) of 12 µM.

In turn, `Cc1ccccc1-c1cn2cc(C(=O)NC(C)C)ccc2n1` [Compound 26] returned a concentration for half-maximal inhibition (IC50) of 33 µM.

The next assay addresses T3, ENL(YEATS)-HiBiT (Homo sapiens, UniProt Q03111).
T3 sequence (Q03111 1-138 limits assumed): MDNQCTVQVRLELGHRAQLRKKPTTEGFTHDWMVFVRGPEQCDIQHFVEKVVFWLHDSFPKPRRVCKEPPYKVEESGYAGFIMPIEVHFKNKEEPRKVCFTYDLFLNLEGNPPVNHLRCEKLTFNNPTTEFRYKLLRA
The experiment in a line: cell-based.
Settings: not given
The compound `CC(C)NC(=O)c1ccc2nc(-c3ccc(C#N)cc3)cn2c1` [Compound 4] showed an IC50 of 80 µM.

Compound `CC(C)NC(=O)c1ccc2nc(-c3ccncc3)cn2c1` [Compound 5] returned an IC50 of 62 µM.

`O=C(NCc1cccnc1)c1ccc2nc(-c3ccccc3)cn2c1` [Compound 9]: the IC50 was 80 µM.

`Cc1ccc(-c2cn3cc(C(=O)NC(C)C)ccc3n2)cc1` [Compound 14] registered an IC50 of 80 µM.

`O=C(NC1CCC1)c1ccc2nc(-c3ccccc3)cn2c1` [Compound 15] had a half-maximal inhibitory concentration (IC50) of 4.04 µM.

In turn, `O=C(NC1CCCC(O)C1)c1ccc2nc(-c3ccccc3)cn2c1` (centres unmarked) [Compound 16] had an IC50 of 80 µM.

Compound `Cc1cccc(-c2cn3cc(C(=O)NC(C)C)ccc3n2)c1` [Compound 17] showed an IC50 of 80 µM.

`CC(C)NC(=O)c1ccc2nc(-c3cccc(C#N)c3)cn2c1` [Compound 18]: 80 µM corresponded to half-maximal inhibition (IC50).

Compound `COc1cccc(-c2cn3cc(C(=O)NC(C)C)ccc3n2)c1` [Compound 20] yielded an IC50 of 80 µM.

The compound `COc1ccc(-c2cn3cc(C(=O)NC(C)C)ccc3n2)cc1` [Compound 22] came in with an IC50 of 80 µM.

`O=C(NC1CCCC1)c1ccc2nc(-c3ccccc3)cn2c1` [Compound 23] yielded a 50% inhibitory concentration (IC50) of 41 µM.

Compound `CC(NC(=O)c1ccc2nc(-c3ccccc3)cn2c1)c1ccncc1` (centres unmarked) [Compound 24] displayed an IC50 of 80 µM.

As to `Cc1ccccc1-c1cn2cc(C(=O)NC(C)C)ccc2n1` [Compound 26], the half-maximal inhibitory concentration (IC50) amounted to 80 µM.

The record behind these values is US20220274980A1, “PHARMACOLOGICAL INHIBITORS OF THE ENL YEATS DOMAIN” (priority 2019, published 2022).
